Values of other authors as cited in US20180235913A1, “AN ORAL PHARMACEUTICAL FORMULATION COMPRISING SUSTAINED-RELEASE GRANULES CONTAINING TAMSULOSIN HYDROCHLORIDE” (HANMI PHARM. CO., LTD., priority 2015, published 2018).
Structures can show the parent of a compound that is named as a salt.

Details: white crystalline powder

Water solubility: slight water solubility
Compound: CCOc1ccccc1OCCN[C@H](C)Cc1ccc(OC)c(S(N)(=O)=O)c1 [Tamsulosin hydrochloride]
